Patent US20070191363A1, “Heteroalkyl-substituted biphenyl-4-carboxylic acid arylamide analogues” (Neurogen Corporation, priority 2004, published 2007)

Biological target: VR
Assay: not given
Details: binds to VR with no more than moderate affinity; typical value; cited from earlier work

SMILES	Ki [µM]
Cl.Cl.Cl.Cl.Cl.Cl.N.N.N.N.N.N.N.N.N.N.N.N.N.N.[O-2].[O-2].[Ru+3].[Ru+3].[Ru+4] [ruthenium red]	≥ 140

Biological target: T1, human capsaicin receptor (Homo sapiens, UniProt Q8NER1)
T1 construct: expressed in transfected cells
Assay: Calcium mobilization assay, capsaicin agonist response
Type: cell-based
Details: capsaicin positive control, calcium mobilization in cells expressing human capsaicin receptor; read-out: approximate EC90 concentration
Protocol: Cells transfected with expression plasmids (as described in Example 3) and thereby expressing human capsaicin receptor are seeded and grown to 70-90% confluency in FALCON black-walled, clear-bottomed 96-well plates (#3904, BECTON-DICKINSON, Franklin Lakes, N.J.). The culture medium is emptied from the 96 well plates and FLUO-3 AM calcium sensitive dye (Molecular Probes, Eugene, Oreg.) is added to each well (dye solution: 1 mg FLUO-3 AM, 440 μL DMSO and 440 μl 20% pluronic acid in DMSO, diluted 1:250 in Krebs-Ringer HEPES (KRH) buffer (25 mM HEPES, 5 mM KCl, 0.96 mM NaH2PO4, 1 mM MgSO4, 2 mM CaCl2, 5 mM glucose, 1 mM probenecid, pH 7.4), 50 μl diluted solution per well). […]
To measure the ability of a test compound to agonize or antagonize a calcium mobilization response in cells expressing capsaicin receptors to capsaicin or other vanilloid agonist, the EC50 of the agonist capsaicin is first determined. […] Capsaicin-induced calcium mobilization is monitored using either FLUOROSKAN ASCENT (Labsystems; Franklin, Mass.) or FLIPR (fluorometric imaging plate reader system; Molecular Devices, Sunnyvale, Calif.) instruments. […] In this equation, y is the maximum fluorescence signal, x is the concentration of the agonist or antagonist (in this case, capsaicin), a is the Emax, b corresponds to the EC50 value and c is the Hill coefficient. […]

T1 sequence (Q8NER1 whole entry): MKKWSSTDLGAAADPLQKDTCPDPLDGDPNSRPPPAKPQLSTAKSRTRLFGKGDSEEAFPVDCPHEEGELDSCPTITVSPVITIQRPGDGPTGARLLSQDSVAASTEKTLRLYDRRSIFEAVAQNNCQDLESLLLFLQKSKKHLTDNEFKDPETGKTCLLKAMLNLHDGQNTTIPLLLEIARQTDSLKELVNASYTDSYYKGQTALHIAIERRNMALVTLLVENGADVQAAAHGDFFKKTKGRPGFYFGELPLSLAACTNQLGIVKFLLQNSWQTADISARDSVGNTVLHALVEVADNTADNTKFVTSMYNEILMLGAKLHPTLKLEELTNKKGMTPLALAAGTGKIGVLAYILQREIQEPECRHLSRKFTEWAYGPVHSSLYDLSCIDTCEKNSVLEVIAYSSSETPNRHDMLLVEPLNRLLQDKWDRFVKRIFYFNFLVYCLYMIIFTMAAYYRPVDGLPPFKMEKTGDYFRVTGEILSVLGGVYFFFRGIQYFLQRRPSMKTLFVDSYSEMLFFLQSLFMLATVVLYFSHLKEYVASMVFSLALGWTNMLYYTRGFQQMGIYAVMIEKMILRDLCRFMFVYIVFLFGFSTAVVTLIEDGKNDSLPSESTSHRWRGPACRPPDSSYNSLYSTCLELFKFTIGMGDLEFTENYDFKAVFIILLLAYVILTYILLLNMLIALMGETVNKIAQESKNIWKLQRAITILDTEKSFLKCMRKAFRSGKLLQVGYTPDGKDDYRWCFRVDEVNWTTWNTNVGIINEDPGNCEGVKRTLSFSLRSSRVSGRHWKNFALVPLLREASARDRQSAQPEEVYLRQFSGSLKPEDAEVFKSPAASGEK

SMILES	EC90 [µM]
COc1cc(CNC(=O)CCCC/C=C/C(C)C)ccc1O [capsaicin]	~0.1

Biological target: T1, human capsaicin receptor
Assay: Calcium mobilization assay, determination of antagonist activity
Type: cell-based
Details: 50% decrease in the fluorescence response of cells exposed to capsaicin; cells expressing human capsaicin receptor
Protocol: A cDNA encoding full length human capsaicin receptor (SEQ ID NO:1, 2 or 3 of U.S. Pat. No. 6,482,611) is subcloned in the plasmid pBK-CMV (Stratagene, La Jolla, Calif.) for recombinant expression in mammalian cells.
Human embryonic kidney (HEK293) cells are transfected with the pBK-CMV expression construct encoding the full length human capsaicin receptor using standard methods. The transfected cells are selected for two weeks in media containing G418 (400 μg/ml) to obtain a pool of stably transfected cells. Independent clones are isolated from this pool by limiting dilution to obtain clonal stable cell lines for use in subsequent experiments.
This Example illustrates a representative calcium mobilization assay for use in monitoring the response of cells expressing capsaicin receptor to capsaicin and other vanilloid ligands of the capsaicin receptor, as well as for evaluating test compounds for agonist and antagonist activity.
Cells transfected with expression plasmids (as described in Example 3) and thereby expressing human capsaicin receptor are seeded and grown to 70-90% confluency in FALCON black-walled, clear-bottomed 96-well plates (#3904, BECTON-DICKINSON, Franklin Lakes, N.J.). The culture medium is emptied from the 96 well plates and FLUO-3 AM calcium sensitive dye (Molecular Probes, Eugene, Oreg.) is added to each well (dye solution: 1 mg FLUO-3 AM, 440 μL DMSO and 440 μl 20% pluronic acid in DMSO, diluted 1:250 in Krebs-Ringer HEPES (KRH) buffer (25 mM HEPES, 5 mM KCl, 0.96 mM NaH2PO4, 1 mM MgSO4, 2 mM CaCl2, 5 mM glucose, 1 mM probenecid, pH 7.4), 50 μl diluted solution per well). Plates are covered with aluminum foil and incubated at 37° C. for 1-2 hours in an environment containing 5% CO2. After the incubation, the dye is emptied from the plates, and the cells are washed once with KRH buffer, and resuspended in KRH buffer.
To measure the ability of a test compound to agonize or antagonize a calcium mobilization response in cells expressing capsaicin receptors to capsaicin or other vanilloid agonist, the EC50 of the agonist capsaicin is first determined. An additional 20 μl of KRH buffer and 1 μl DMSO is added to each well of cells, prepared as described above. 100 μl capsaicin in KRH buffer is automatically transferred by the FLIPR instrument to each well. Capsaicin-induced calcium mobilization is monitored using either FLUOROSKAN ASCENT (Labsystems; Franklin, Mass.) or FLIPR (fluorometric imaging plate reader system; Molecular Devices, Sunnyvale, Calif.) instruments. Data obtained between 30 and 60 seconds after agonist application are used to generate an 8-point concentration response curve, with final capsaicin concentrations of 1 nM to 3 μM. […] software (Synergy Software, Reading, Pa.) is used to fit the data to the equation: y=a*(1/(1+(b/x)c)) to determine the 50% excitatory concentration (EC50) for the response. In this equation, y is the maximum fluorescence signal, x is the concentration of the agonist or antagonist (in this case, capsaicin), a is the Emax, b corresponds to the EC50 value and c is the Hill coefficient. Determination of Agonist Activity
Test compounds are dissolved in DMSO, diluted in 20 μl KRH buffer so that the final concentration of test compounds in the assay well is between 1 μM and 5 μM, and added to cells prepared as described above. The 96 well plates containing prepared cells and test compounds are incubated in the dark, at room temperature for 0.5 to 6 hours. It is important that the incubation not continue beyond 6 hours. Just prior to determining the fluorescence response, 100 μl capsaicin in KRH buffer at twice the EC50 concentration determined as described above is automatically added by the FLIPR instrument to each well of the 96 well plate for a final sample volume of 200 μl and a final capsaicin concentration equal to the EC50. The final concentration of test compounds in the assay wells is between 1 μM and 5 μM.

SMILES	IC50 [µM]
CC(C)(C)c1ccc(NC(=O)c2ccc(-c3ncccc3C(F)(F)F)cc2)cc1OCCO [Compound 1, N-[4-tert-Butyl-3-(2-hydroxy-ethoxy)-phenyl]-4-(3-trifluoromethyl-pyridin-2-yl)-benzamide]	≤ 1
CC(C)(C)c1ccc(NC(=O)c2ccc(-c3ncccc3C(F)(F)F)cc2)cc1OCCN1CCOCC1 [Compound 2, N-[4-tert-Butyl-3-(2-morpholin-4-yl-ethoxy)-phenyl]-4-(3-trifluoromethyl-pyridin-2-yl)-benzamide]	≤ 1
C[C@@H]1CN(CCOc2cc(NC(=O)c3ccc(-c4ncccc4C(F)(F)F)cc3)ccc2C(C)(C)C)C[C@H](C)O1 [Compound 3, N-{4-tert-Butyl-3-[2-(2,6-dimethyl-morpholin-4-yl)-ethoxy]-phenyl}-4-(3-trifluoromethyl-pyridin-2-yl)-benzamide (cis)]	≤ 1
CC(C)(C)c1ccc(NC(=O)c2ccc(-c3ncccc3C(F)(F)F)cc2)cc1OCCN1CCCCC1 [Compound 4, N-[4-tert-Butyl-3-(2-piperidin-1-yl-ethoxy)-phenyl]-4-(3-trifluoromethyl-pyridin-2-yl)-benzamide]	≤ 1
COCCN(CCOC)CCOc1cc(NC(=O)c2ccc(-c3ncccc3C(F)(F)F)cc2)ccc1C(C)(C)C [Compound 5, N-(3-{2-[Bis-(2-methoxy-ethyl)-amino]-ethoxy}-4-tert-butyl-phenyl)-4-(3-trifluoromethyl-pyridin-2-yl)-benzamide]	≤ 1
CC1(C)CCCN(CCOc2cc(NC(=O)c3ccc(-c4ncccc4C(F)(F)F)cc3)ccc2C(C)(C)C)C1 [Compound 6, N-{4-tert-Butyl-3-[2-(3,3-dimethyl-piperidin-1-yl)-ethoxy]-phenyl}-4-(3-trifluoromethyl-pyridin-2-yl)-benzamide]	≤ 1
CC(C)(C)c1ccc(NC(=O)c2ccc(-c3ncccc3C(F)(F)F)cc2O)cc1OCCO [Compound 7, N-[4-tert-Butyl-3-(2-hydroxy-ethoxy)-phenyl]-2-hydroxy-4-(3-trifluoromethyl-pyridin-2-yl)-benzamide]	≤ 1
C[C@@H]1CN(CCOc2cc(NC(=O)c3ccc(-c4ncccc4C(F)(F)F)cc3O)ccc2C(C)(C)C)C[C@H](C)O1 [Compound 8, N-{4-tert-Butyl-3-[2-(2,6-dimethyl-morpholin-4-yl)-ethoxy]-phenyl}-2-hydroxy-4-(3-trifluoromethyl-pyridin-2-yl)-benzamide (cis)]	≤ 1
CC(C)(C)c1ccc(NC(=O)c2ccc(-c3ncccc3C(F)(F)F)cc2O)cc1OCCN1CCCCC1 [Compound 9, N-[4-tert-Butyl-3-(2-piperidin-1-yl-ethoxy)-phenyl]-2-hydroxy-4-(3-trifluoromethyl-pyridin-2-yl)-benzamide]	≤ 1
